In patent US20260132127A1, “NOVEL SPIRO COMPOUND” (MITSUBISHI TANABE PHARMA CORPORATION, priority 2021, published 2026) one finds IC50 data, which are given here for 38 molecules.

Structures are written as SMILES. pIC50: −log10 of the molar value.

This experiment addresses T1, human TRH-DE (Homo sapiens, UniProt Q9UKU6).
T1 construct: expressed in transfected cells; host or cells: Expi 293 cells (transient expression), membrane fraction
T1 sequence (Q9UKU6 1-1069): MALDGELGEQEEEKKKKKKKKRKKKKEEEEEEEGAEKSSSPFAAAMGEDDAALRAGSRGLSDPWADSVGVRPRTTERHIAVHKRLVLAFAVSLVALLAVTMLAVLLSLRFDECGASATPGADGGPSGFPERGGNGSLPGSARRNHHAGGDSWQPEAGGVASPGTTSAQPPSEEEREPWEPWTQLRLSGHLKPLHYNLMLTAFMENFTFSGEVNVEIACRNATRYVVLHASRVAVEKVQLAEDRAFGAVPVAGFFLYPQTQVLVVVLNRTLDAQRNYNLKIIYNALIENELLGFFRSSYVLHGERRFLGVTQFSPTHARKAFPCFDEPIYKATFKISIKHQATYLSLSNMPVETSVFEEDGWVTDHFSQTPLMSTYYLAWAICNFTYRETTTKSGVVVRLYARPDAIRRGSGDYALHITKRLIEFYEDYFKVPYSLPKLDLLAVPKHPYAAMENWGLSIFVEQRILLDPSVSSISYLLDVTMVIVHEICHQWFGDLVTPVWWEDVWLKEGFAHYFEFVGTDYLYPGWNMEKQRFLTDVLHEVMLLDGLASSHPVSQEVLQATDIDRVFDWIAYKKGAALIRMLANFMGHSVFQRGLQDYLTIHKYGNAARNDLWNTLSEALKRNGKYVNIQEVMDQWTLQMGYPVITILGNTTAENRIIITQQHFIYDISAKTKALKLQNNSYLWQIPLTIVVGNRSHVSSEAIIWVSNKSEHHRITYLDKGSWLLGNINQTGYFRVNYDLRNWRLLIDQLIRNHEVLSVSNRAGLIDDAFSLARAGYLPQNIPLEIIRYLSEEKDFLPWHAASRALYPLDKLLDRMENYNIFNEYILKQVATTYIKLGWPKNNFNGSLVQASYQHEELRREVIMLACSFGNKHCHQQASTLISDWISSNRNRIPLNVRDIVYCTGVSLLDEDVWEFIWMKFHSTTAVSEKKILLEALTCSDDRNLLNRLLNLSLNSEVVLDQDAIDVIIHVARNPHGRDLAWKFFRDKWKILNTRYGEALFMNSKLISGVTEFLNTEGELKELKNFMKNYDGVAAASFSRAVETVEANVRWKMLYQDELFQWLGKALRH
The experiment can be described thus: TRH-DE inhibition test (RapidFire MS measurement of product Cyclo (His-Pro)). The format is biochemical. The conditions noted are these: membrane fraction of Expi 293 cells expressing human TRH-DE; 10 μM TRH substrate; room temperature, 2 hours; 16-point concentration test. Here is the method: The compounds described in “1. […] The enzyme inhibitory activity of each of the compounds was evaluated by measuring the amount of the product Cyclo (His-Pro) of the enzyme reaction using a RapidFire RF 365 HTMS system (manufactured by Agilent Technologies, Inc.) connected to a triple quadrupole mass spectrometer (API 4000, manufactured by SCIEX). A membrane fraction prepared from Expi 293 cells transiently expressing human TRH-DE was used as an enzyme. The membrane fraction was suspended in 4 μg/ml of a reaction buffer (50 mM sodium phosphate (pH 7.4), 25 mM NaCl, 0.01% Triton […], and 200 μM bacitracin) and mixed with the test compound at each concentration. 10 μM […]), which was a substrate, was added, and the mixture was reacted at room temperature for 2 hours. The reaction was stopped in the same amount of a solution of acetonitrile:methanol (1:1) containing 1 μM of the stable isotope Cyclo ([…]) as an internal standard, and the supernatant was collected after centrifugation. In the RapidFire RF 365 HTMS system, a portion of the supernatant was aspirated, loaded onto a Graphic Carbon column (manufactured by Agilent Technologies, Inc.) with a buffer A (water, 0.09% formic acid, 0.01% trifluoroacetic acid) and washed with ultrapure water. Next, washing was performed with acetonitrile. The contents in the column were eluted with a buffer B (80% acetonitrile, 0.09% formic acid, 0.01% trifluoroacetic acid) and injected into a mass spectrometer for analysis. […] The ESI voltage was set to 5,500 V and the temperature was set to 650° C. For the calculation of the inhibition rate, a Ratio value corrected by dividing the product amount by the internal standard amount was used. The inhibition rate (%) was calculated by % Inhibition={1-(Ratio value of sample-Ratio value of blank)/(Ratio value of control-Ratio value of blank)}×100. The IC50 value was calculated from the concentration reactivity test at 16 points.
The term pIC50 denotes −log10 of the IC50, conventionally taken in molar units. The molecule `CC1(O)c2cnccc2C(=O)N1C1CC2(C1)CN(S(=O)(=O)c1ccccc1F)C2` (racemic) [Example 282] showed a negative logarithm of the IC50 (pIC50) of 6.91.
`CC1(O)c2ccccc2C(=O)N1C1CC2(C1)CN(S(=O)(=O)c1ccccc1)C2` (racemic) [Example 284] showed a pIC50 of 6.27.
For `CCC1(O)c2ccccc2C(=O)N1C1CC2(C1)CN(S(=O)(=O)c1ccccc1)C2` (racemic) [Example 285] the value was 6.02; for `CCC1(O)c2ccccc2C(=O)N1C1CC2(C1)CN(S(=O)(=O)c1ccccc1F)C2` (racemic) [Example 286], 6.67; for `Cc1ccc(F)c(S(=O)(=O)N2CC3(CC(N4C(=O)c5ccccc5C4(C)O)C3)C2)c1` (racemic) [Example 287], 7.05.
Molecule `CCC1(O)c2ccccc2C(=O)N1C1CC2(C1)CN(S(=O)(=O)c1cc(C)ccc1F)C2` (racemic) [Example 288] had a pIC50 of 6.47.
The molecule `CCC1(O)c2ccccc2C(=O)N1C1CC2(C1)CN(S(=O)(=O)c1cc(OC)ccc1F)C2` (racemic) [Example 289] gave a pIC50 of 6.47.
For `CC1c2cccnc2C(=O)N1C1CC2(C1)CN(S(=O)(=O)c1ccccc1F)C2` (racemic) [Example 291] the value was 6.67; for `CC1c2cc(F)cnc2C(=O)N1C1CC2(C1)CN(S(=O)(=O)c1ccccc1F)C2` (racemic) [Example 292], 6.81.
For `Cc1cnc2c(c1)C(C)N(C1CC3(C1)CN(S(=O)(=O)c1ccccc1F)C3)C2=O` (racemic) [Example 293] the value was 6.92; for `COc1ccc2c(n1)C(=O)N(C1CC3(C1)CN(S(=O)(=O)c1ccccc1F)C3)C2C` (racemic) [Example 294], 6.93.
Molecule `CC1c2cnccc2C(=O)N1C1CC2(C1)CN(S(=O)(=O)c1ccccc1F)C2` (racemic) [Example 295] gave a pIC50 of 6.45.
Molecule `C[C@@H]1CC[C@H](C)N(C2CC3(C2)CN(S(=O)(=O)c2ccccc2F)C3)C(=O)C1` (racemic) [Example 436, (4R*,7S*)-1-[2-(2-fluorophenyl)sulfonyl-2-azaspiro[3.3]heptan-6-yl]-4,7-dimethylazepan-2-one] showed a negative logarithm of the IC50 (pIC50) of 7.48.
With `C[C@@H]1CC[C@@H](C)N(C2CC3(C2)CN(S(=O)(=O)c2ccccc2F)C3)C(=O)C1` (racemic) [Example 437, (4R*,7R*)-1-[2-(2-fluorophenyl)sulfonyl-2-azaspiro[3.3]heptan-6-yl]-4,7-dimethylazepan-2-one], the negative-log IC50 (pIC50) was 6.53.
For `CC1CCC(=O)N(C2CC3(C2)CN(S(=O)(=O)c2ccccc2F)C3)C(C)C1` (racemic) [Example 438] the value was 6.90; for `CC1CCC(=O)N(C2CC3(C2)CN(S(=O)(=O)c2ccccc2F)C3)C(C)C1` (racemic) [Example 439], 6.91.
The molecule `CC1CCCC(=O)N1C1CC2(C1)CN(S(=O)(=O)c1ccccc1F)C2` (racemic) [Example 440, 1-[2-(2-fluorophenyl)sulfonyl-2-azaspiro[3.3]heptan-6-yl]-6-methylpiperidin-2-one] gave a pIC50 of 6.70.
Molecule `C[C@@H]1COc2nc(N3C[C@H]4C[C@H]4C3)ncc2C(=O)N1C1CC2(C1)CN(S(=O)(=O)c1ccccc1F)C2` (relative stereo) [Example 168, (7R)-2-[(1S*,5R*)-3-azabicyclo[3.1.0]hexan-3-yl]-6-[2-(2-fluorophenyl)sulfonyl]-2-azaspiro[3.3]heptan-6-yl]-7-methyl-7,8-dihydropyrimido[5,4-f][1,4]oxazepin-5-one] had a pIC50 of 8.70.
In turn, `CC1COc2cccnc2C(=O)N1C1CC2(C1)CN(S(=O)(=O)c1ccccc1F)C2` (single isomer, unassigned) [Example 348] gave a pIC50 of 8.30.
For `CC1COc2cccnc2C(=O)N1C1CC2(C1)CN(S(=O)(=O)c1ccccc1F)C2` (single isomer, unassigned) [Example 349] the value was 6.29.
With `CC1CCc2nc(C(F)(F)F)sc2C(=O)N1C1CC2(C1)CN(S(=O)(=O)c1ccccc1F)C2` (single isomer, unassigned) [Example 352] the figure was 7.96; with `CC1CCc2nc(C(F)(F)F)sc2C(=O)N1C1CC2(C1)CN(S(=O)(=O)c1ccccc1F)C2` (single isomer, unassigned) [Example 353], 7.18; with `CC1CCc2nc(C3CC3)sc2C(=O)N1C1CC2(C1)CN(S(=O)(=O)c1ccccc1F)C2` (single isomer, unassigned) [Example 354], 8.70.
The molecule `CC1CCc2nc(C3CC3)sc2C(=O)N1C1CC2(C1)CN(S(=O)(=O)c1ccccc1F)C2` (single isomer, unassigned) [Example 355] had a pIC50 of 7.77.
The molecule `CC1Cc2nc(C(F)(F)F)ccc2C(=O)N1C1CC2(C1)CN(S(=O)(=O)c1ccccc1F)C2` (single isomer, unassigned) [Example 356] had a pIC50 of 7.36.
`CC1c2ccccc2C(=O)N1C1CC2(C1)CN(S(=O)(=O)c1ccccc1F)C2` (single isomer, unassigned) [Example 358] had a negative-log IC50 (pIC50) of 7.05.
With `CC1c2ccccc2C(=O)N1C1CC2(C1)CN(S(=O)(=O)c1ccccc1F)C2` (single isomer, unassigned) [Example 359] the figure was 6.34; with `CC1c2cccnc2C(=O)N1C1CC2(C1)CN(S(=O)(=O)c1ccccc1F)C2` (single isomer, unassigned) [Example 360], 7.07.
The molecule `CC1c2cc(F)cnc2C(=O)N1C1CC2(C1)CN(S(=O)(=O)c1ccccc1F)C2` (single isomer, unassigned) [Example 362] showed a negative-log IC50 (pIC50) of 6.74.
For `CC1c2cc(C(F)(F)F)cnc2C(=O)N1C1CC2(C1)CN(S(=O)(=O)c1ccccc1F)C2` (single isomer, unassigned) [Example 365], the negative logarithm of the IC50 (pIC50) is 6.80.
For `C[C@@H]1COc2nc(OC3CC(C#N)C3)ncc2C(=O)N1C1CC2(C1)CN(S(=O)(=O)c1ccccc1F)C2` (stereo in doubt) [Example 379], the pIC50 is 8.00.
With `C[C@@H]1COc2nc(Cl)ncc2C(=O)N1C1CC2(C1)CN(S(=O)(=O)c1ccccc1F)C2` [Example 6], the negative-log IC50 (pIC50) is 7.89.
`C[C@@H]1COc2nccnc2C(=O)N1C1CC2(C1)CN(S(=O)(=O)c1ccccc1F)C2` [Example 8, (7R)-8-[2-(2-fluorophenyl)sulfonyl-2-azaspiro[3.3]heptan-6-yl]-7-methyl-6,7-dihydropyrazino[2,3-f][1,4]oxazepin-9-one] had a pIC50 of 7.89.
Molecule `C[C@@H]1COc2cc(F)cnc2C(=O)N1C1CC2(C1)CN(S(=O)(=O)c1ccccc1F)C2` [Example 11] had a pIC50 of 8.40.
In the case of `C[C@@H]1COc2ccc(Cl)nc2C(=O)N1C1CC2(C1)CN(S(=O)(=O)c1ccccc1F)C2` [Example 12], the pIC50 is 8.05.
`C[C@@H]1COc2cc(Cl)cnc2C(=O)N1C1CC2(C1)CN(S(=O)(=O)c1ccccc1F)C2` [Example 13] gave a pIC50 of 8.70.
Turning to `C[C@@H]1COc2ccc(C(F)(F)F)nc2C(=O)N1C1CC2(C1)CN(S(=O)(=O)c1ccccc1F)C2` [Example 17], the pIC50 is 8.10.
As for `C[C@@H]1COc2cc(Br)cnc2C(=O)N1C1CC2(C1)CN(S(=O)(=O)c1ccccc1F)C2` [Example 18], the negative logarithm of the IC50 (pIC50) was 9.00.
